These compounds were tested against D-amino-acid oxidase (Sus scrofa, UniProt P00371) (assay: Inhibition of pig DAAO assessed as D-Serine conversion to H2O2 by spectrophotometric analysis).
Sequence of D-amino-acid oxidase (Sus scrofa, UniProt P00371) (P00371 whole entry): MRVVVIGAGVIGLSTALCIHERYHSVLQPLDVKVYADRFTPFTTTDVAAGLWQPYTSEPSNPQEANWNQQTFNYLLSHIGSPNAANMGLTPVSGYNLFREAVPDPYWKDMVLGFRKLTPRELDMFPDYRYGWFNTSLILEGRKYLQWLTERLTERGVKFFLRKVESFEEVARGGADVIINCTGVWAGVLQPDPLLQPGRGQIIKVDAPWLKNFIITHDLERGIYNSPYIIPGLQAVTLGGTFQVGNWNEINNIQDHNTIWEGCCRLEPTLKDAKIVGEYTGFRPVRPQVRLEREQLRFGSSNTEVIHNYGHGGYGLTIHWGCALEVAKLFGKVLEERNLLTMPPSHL

| IC50 [nM] | SMILES |
| --- | --- |
| < 10000 | O=C(O)c1ccc[nH]1 |
| < 100000 | O=C(O)c1cc[nH]n1 |
| < 1000 | O=C(O)c1cc(CCc2ccccc2)c[nH]1 |
| < 1000 | O=C(O)c1cc(CCc2ccccc2)[nH]n1 |

Each compound was assayed against D-amino-acid oxidase (Homo sapiens, UniProt P14920) (assay: Inhibition of human recombinant DAAO expressed in HEK293 cell lysate assessed as D-Serine conversion to H2O2 after 20 mins by spectrophotometric analysis).
Type: cell-free

Sequence of D-amino-acid oxidase (Homo sapiens, UniProt P14920) (P14920 whole entry): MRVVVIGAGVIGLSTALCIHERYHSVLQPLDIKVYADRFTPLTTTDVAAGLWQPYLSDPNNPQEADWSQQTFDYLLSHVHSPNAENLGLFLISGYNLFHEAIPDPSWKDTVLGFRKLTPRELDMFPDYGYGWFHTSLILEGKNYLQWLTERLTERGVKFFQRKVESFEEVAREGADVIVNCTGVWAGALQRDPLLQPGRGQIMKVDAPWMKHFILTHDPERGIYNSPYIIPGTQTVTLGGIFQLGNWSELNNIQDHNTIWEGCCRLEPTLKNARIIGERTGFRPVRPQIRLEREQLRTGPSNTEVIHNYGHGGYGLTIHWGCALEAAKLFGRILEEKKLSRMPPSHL

| IC50 [nM] | SMILES |
| --- | --- |
| 900 | O=c1cc(COc2ccccc2)occ1O |
| 500 | O=c1cc(COc2ccc(Cl)c(Cl)c2)occ1O |
| 800 | O=c1cc(COc2ccc(F)cc2)occ1O |
| 50000 | COCc1cc(=O)c(O)co1 |
| > 100000 | COc1coc(CO)cc1=O |
| 3000 | O=c1cc(COc2cccnc2)occ1O |
| 700 | O=c1cc(COc2ccc(Cl)cc2)occ1O |
| 20000 | O=c1cc(COCc2ccccc2)occ1O |
| > 100000 | O=c1cc(COC2CCCCO2)occ1O (stereo not drawn) |
| > 100000 | CCOCc1cc(=O)c(O)co1 |

More lines, now with the values behind:

| SMILES | IC50 [nM] |
| --- | --- |
| O=c1ccn(CCc2ccccc2)cc1O | > 100000 |
| O=c1cc(CSc2ccccc2)occ1O | 200 |
| O=c1cc(COc2cccc3ccccc23)occ1O | 900 |
| O=c1cc(CCc2ccccc2)occ1O | 500 |
| O=c1cc(CSc2ccc(F)cc2)occ1O | 300 |
| O=c1cc(CSc2ccc(Cl)c(Cl)c2)occ1O | 100 |
| O=c1cc(CSc2ncccn2)occ1O | 4000 |
| O=c1cc(COc2ccc3ccccc3c2)occ1O | 800 |
| O=c1cc(CSc2ccc(Cl)cc2)occ1O | 200 |
